Measured values: US11234982B2, “Methods for treating ocular surface pain” (NOVARTIS AG, priority 2019, dated 2022)

Tests used:
[1] = system: healthy volunteers; test: First in human study Part 1: SAD, incidence of adverse events; format: in vivo; details: N = 6
Experimental: This example describes a first-in-human study of compound I conducted in healthy volunteers. A total of 54 subjects were administered to study medication. Part 1 of the first in human study administered single ascending doses of 0.15%, 1.5%, 2.5% w/v (1 drop) of compound I in an eye drop.
Safety assessments: Safety assessments consisted of collecting all adverse events (AEs), serious adverse events (SAEs), including systemic and ocular adverse events, along with their severity and relationship to study drug. Systemic safety assessments included regular monitoring of hematology, blood chemistry and urinalysis performed at study center and regular assessments of physical examination, vital signs (systolic and diastolic blood pressure, pulse rate, and body temperature), ECG, pregnancy and assessments of fertility and hand immersion test at 49° C. during MAD part. Ocular safety assessments included early treatment diabetic retinopathy study (ETDRS) visual acuity, intraocular pressure, slit-lamp biomicroscopy, corneal staining and dilated fundus exam.
Inclusion Criteria: • Written informed consent was obtained before any assessment was performed. • Healthy male and female subjects aged 18 to 50 years (inclusive), and in good health as determined by past medical history, physical examination, vital signs, ECG, and laboratory tests at Screening. • At Screening, and Baseline, vital signs (systolic and diastolic blood pressure (BP) and pulse rate) were assessed in the sitting position after the subject had rested for at least 3 minutes and again after 3 minutes in the standing position. […] BMI=Body weight (kg)/[Height (m)]^2 • Subjects who were able to communicate well with the Investigator, to understand and comply with the requirements of the study. • For Part 3, subjects Baseline levels of eye sensitivity were to be in the range of 50 to 60 mm (inclusive) as measured by the Cochet-Bonnet esthesiometer.
History of any chronic eye disease other than refractive error, incipient cataract, strabismic amblyopia, or anisometropic amblyopia. Subjects with a history of acute eye disease (such as infection, corneal abrasion or allergy) within the past 6 months from Screening were eligible if the disease was not active. • Any currently active ocular condition that required use of topical eye drops. • Subjects using continuous positive airway pressure or other sleep apnea devices.

[2] = PRK study: residual compound I in bandage contact lens (BCL); format: in vivo, human
Experimental: Compound I was quantified in plasma using a validated LC-MS/MS method; the lower limit of quantification (LLOQ) was 0.05 ng/mL. Concentrations were expressed in ng per mL units. When feasible, bandage contact lenses (BCL) exposed to study drug were collected and analyzed for residual drug exposure after treatment (LLOQ: 5.00 ng/mL in 0.55 mL of extraction fluid, or 2.75 ng/BCL). Concentrations below the LLOQ were reported as “zero” and missing data were labeled as such.
Bandage Contact Lens (BCL) was collected from 40 patients on Day 4 of the dose administration and analyzed for compound I. Values from the three IMP non-compliant patients were excluded from BCL summary statistics, leaving 37 values evaluable, including one value from a patient without available plasma PK. The mean concentration of compound I (CV %) in 0.55 mL extraction fluid was 8500 ng/mL (73.1%), with a wide range of 284 to 22600 ng/mL. These concentrations translate to an estimated mean of 4680 ng/lens (0.55 mL×8500 ng/mL), and a range of 156 to 12400 ng/lens. The amount in BCL was very small in relation to the 0.925 mg dose of compound I administered: mean 0.51%, and range of 0.017% to 1.3% of dose.

[3] = system: patients undergoing photorefractive keratectomy (PRK) surgery; test: PRK study: Ocular Pain Assessment Survey (OPAS); format: in vivo, human
Experimental: The study was a proof of concept, double-masked, randomized, vehicle-controlled study of compound I administered as eye drops in addition to standard of care treatment in patients after PRK surgery. PRK surgery was performed as an outpatient procedure under topical anesthesia with removal of the corneal epithelium to expose the stroma for the laser ablation. Compound I dosing was as single eye drop of 2.5% (25 mg/ml, 0.925 mg/drop), administered four times daily (every six hours) in one eye from immediate post-op (time 0) to last dose at 72 hours.
The OPAS is a validated instrument for quantifying and monitoring corneal and ocular surface pain and quality of life, developed in response to an identified need from a National Eye Institute Workshop in 2010. See Qazi et al., Ophthalmology July 123(7):1458-1468 (2016). The rating scale of the overall pain severity in the OPAS from Qazi et al. rated from 0 (no pain) to 10 (severe pain) or for frequency of symptoms from 0% (never) to 100% (all the time), as per the survey. The patients were asked to fill out the OPAS survey/questionnaire at Day 2, Day 4 (at the end of treatment period with study drug) and Day 8. Statistical analysis of OPAS results was not performed.

For CC(C)c1nc2cc(O)ccc2c(=O)n1-c1ccc(C#N)cc1 [Compound I, 4-(7-hydroxy-2-isopropyl-4-oxo-4H-quinazolin-3-yl)-benzonitrile], the “AEs leading to of study: nE” value ([1]; 0.15% 1 drop) was 0, the “AEs leading to of study: nS (%)” value ([1]; 0.15% 1 drop) was 0 (0.0) nS (%) and the “AEs of Mild severity: nE” value ([1]; 0.15% 1 drop) was 3. The “AEs of Mild severity: nS (%)” value ([1]; 0.15% 1 drop) was 1 (16.7) nS (%), the “AEs of Moderate severity: nE” value ([1]; 0.15% 1 drop) was 0 and the “AEs of Moderate severity: nS (%)” value ([1]; 0.15% 1 drop) was 0 (0.0) nS (%). The “AEs, Subjects with AEs: nE (AE events)” value ([1]; 0.15% 1 drop) was 3, the “AEs, Subjects with AEs: nS (%) (subjects with at least one AE)” value (“AEs, Subjects with AEs: nS (%)” below) ([1]; 0.15% 1 drop) was 1 (16.7) nS (%) and the “Serious AEs: nE” value ([1]; 0.15% 1 drop) was 0. For the same molecule, the “Serious AEs: nS (%)” value ([1]; 0.15% 1 drop) was 0 (0.0) nS (%), the “Study drug-related AEs: nE” value ([1]; 0.15% 1 drop) was 3 and the “Study drug-related AEs: nS (%)” value ([1]; 0.15% 1 drop) was 1 (16.7) nS (%). For the same molecule, the “Study-drug related AEs leading to discontinuation of study: nE” value (from here on “Study-drug related AEs leading … nE”) ([1]; 0.15% 1 drop) was 0, the “Study-drug related AEs leading to discontinuation of study: nS (%)” value (from here on “Study-drug related AEs leading … (%)”) ([1]; 0.15% 1 drop) was 0 (0.0) nS (%) and the “AEs leading to of study: nE” value ([1]; 1.5% 1 drop) was 0. For the same molecule, the “AEs leading to of study: nS (%)” value ([1]; 1.5% 1 drop) was 0 (0.0) nS (%), the “AEs of Mild severity: nE” value ([1]; 1.5% 1 drop) was 3 and the “AEs of Mild severity: nS (%)” value ([1]; 1.5% 1 drop) was 2 (33.3) nS (%). For the same molecule, the “AEs of Moderate severity: nE” value ([1]; 1.5% 1 drop) was 0, the “AEs of Moderate severity: nS (%)” value ([1]; 1.5% 1 drop) was 0 (0.0) nS (%) and the “AEs, Subjects with AEs: nE (AE events)” value ([1]; 1.5% 1 drop) was 3. The “AEs, Subjects with AEs: nS (%)” value ([1]; 1.5% 1 drop) was 2 (33.3) nS (%), the “Serious AEs: nE” value ([1]; 1.5% 1 drop) was 0 and the “Serious AEs: nS (%)” value ([1]; 1.5% 1 drop) was 0 (0.0) nS (%). For the same molecule, the “Study drug-related AEs: nE” value ([1]; 1.5% 1 drop) was 3, the “Study drug-related AEs: nS (%)” value ([1]; 1.5% 1 drop) was 2 (33.3) nS (%) and the “Study-drug related AEs leading … nE” value ([1]; 1.5% 1 drop) was 0. For the same molecule, the “Study-drug related AEs leading … (%)” value ([1]; 1.5% 1 drop) was 0 (0.0) nS (%), the “AEs leading to of study: nE” value ([1]; 2.5% 1 drop) was 0 and the “AEs leading to of study: nS (%)” value ([1]; 2.5% 1 drop) was 0 (0.0) nS (%). The “AEs of Mild severity: nE” value ([1]; 2.5% 1 drop) was 0, the “AEs of Mild severity: nS (%)” value ([1]; 2.5% 1 drop) was 0 (0.0) nS (%) and the “AEs of Moderate severity: nE” value ([1]; 2.5% 1 drop) was 0. For the same molecule, the “AEs of Moderate severity: nS (%)” value ([1]; 2.5% 1 drop) was 0 (0.0) nS (%), the “AEs, Subjects with AEs: nE (AE events)” value ([1]; 2.5% 1 drop) was 0 and the “AEs, Subjects with AEs: nS (%)” value ([1]; 2.5% 1 drop) was 0 (0.0) nS (%). The “Serious AEs: nE” value ([1]; 2.5% 1 drop) was 0, the “Serious AEs: nS (%)” value ([1]; 2.5% 1 drop) was 0 (0.0) nS (%) and the “Study drug-related AEs: nE” value ([1]; 2.5% 1 drop) was 0. For the same molecule, the “Study drug-related AEs: nS (%)” value ([1]; 2.5% 1 drop) was 0 (0.0) nS (%), the “Study-drug related AEs leading … nE” value ([1]; 2.5% 1 drop) was 0 and the “Study-drug related AEs leading … (%)” value ([1]; 2.5% 1 drop) was 0 (0.0) nS (%). The “Range of concentration of compound I in BCL extraction fluid” value ([2]; 0.55 mL extraction fluid, Day 4) was 284 to 22600 ng/mL, the “Mean concentration of compound I in BCL extraction fluid” value ([2]; 0.55 mL extraction fluid, Day 4, 37 values) was 8500 ng/mL and the “Estimated mean amount of compound I per lens” value ([2]; 0.55 mL×8500 ng/mL) was 4680 ng/lens. For the same molecule, the “Amount in BCL in relation to the 0.925 mg dose, mean” value ([2]; Day 4) was 0.51 % of dose, the “Amount in BCL in relation to the 0.925 mg dose, range” value ([2]; Day 4) was 0.017 % of dose and the “Range of amount of compound I per lens” value ([2]; Day 4) was 156 to 12400 ng/lens. The “OPAS questions 4, 5, 6: eye pain intensity during the previous 24 hours (most painful, least painful, average)” value ([3]; Day 2, compared to Vehicle, no statistical analysis) was “all 3 answers numerically favored compound I”, the “OPAS questions 22-25: how often eye pain associated with redness, burning, sensitivity to light, tearing” value ([3]; compared to Vehicle, no statistical analysis) was “all answers favored compound I” and the “OPAS: pain control and quality of life, compound I vs. Vehicle treatment period” value ([3]; in vivo) was “better pain control and quality of life”.
